Experimental data from the supplement of paper PMC8882468.

How the values were obtained:
Assay in all cases: CTG-3D luminescence at 96 h relative to day-0 seeding control (ratio to day 0); higher = more growth / less cytotoxicity
HCI-027 = test system: HCI-027 (organoid from a triple-negative breast cancer xenograft)
Protocol: (§1)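 PDX-derived breast cancer organoids (PDxO) in 384-well Matrigel plates, 8-point dose (0.000000625-100 uM), 96 h at 37 C; CellTiter-Glo 3D luminescence normalised to the day-0 seeding control (mean of 4 technical replicates over mean of 4 day-0 wells).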

HCI-011.E2 = test system: HCI-011.E2 (organoid from an ER-positive breast cancer xenograft)
Protocol: as §1

HCI-024 = test system: HCI-024 (organoid from a breast cancer xenograft)
Protocol: as §1

HCI-002 = test system: HCI-002 (organoid from a triple-negative breast cancer xenograft)
Protocol: as §1

HCI-005.E2 = test system: HCI-005.E2 (organoid from a breast cancer xenograft with a HER2-positive history)
Protocol: as §1

MDA-MB-231 = test system: MDA-MB-231
Protocol: as §1

HCI-017.E2 = test system: HCI-017.E2 (organoid from an ER-positive breast cancer xenograft)
Protocol: as §1

O=c1[nH]cc(F)c(=O)[nH]1 [5-fluorouracil]
CTG-3D luminescence at 96 h
Details	12.5 pM	0.00025 µM	0.005 µM	0.1 µM	1 µM	10 µM	100 µM	625 fM
HCI-002, days in culture: 62	2.85	2.76	3.08	2.64	2.28	2.07	1.07	3.16
HCI-002, days in culture: 82	2.94	2.81	2.15	2.78	2.66	1.66	1.08	3.04
HCI-002, days in culture: 91	4.34	3.73	3.78	4.16	2.98	3.14	1.6	4.03
HCI-002, days in culture: 191	2.53	2.58	2.45	2.4	2.34	1.91	1.22	2.43
HCI-002, days in culture: 209	2.41	2.39	2.11	2.23	2.05	1.43	1.02	2.45
HCI-002, days in culture: 227	6.3	6.54	6.31	7.6	5.98	3.45	1.93	6.49
HCI-011.E2, days in culture: 74	1.83	2.05	1.91	1.77	2.19	2.63	1.57	1.62
HCI-017.E2, days in culture: 85	2.76	2.47	2.46	2.16	2.41	1.85	1.6	2.21
HCI-024, days in culture: 105	1.58	1.5	1.45	1.66	1.59	1.53	0.681	2.03
HCI-024, days in culture: 122	2.23	2.19	1.64	1.97	1.98	2.04	0.857	3.11
HCI-024, days in culture: 163	2.3	2.61	1.89	2.32	2.29	1.9	1.21	2.13
HCI-027, days in culture: 176	2.05	1.56	2.56	1.65	2.29	0.753	0.527	1.98
HCI-027, days in culture: 194	1.69	1.22	1.34	1.6	1.41	1.29	0.526	1.51
HCI-027, days in culture: 201	1.96	1.99	2.23	1.8	1.26	1.05	0.398	1.53

CTG-3D luminescence at 96 h
Details	12.5 pM	0.00025 µM	0.005 µM	0.1 µM	1 µM	10 µM	100 µM	625 fM
HCI-005.E2	1.91	1.66	1.64	2.48	1.78	1.18	0.891	1.69
HCI-011.E2	1.56	1.46	1.7	1.81	1.73	2.08	1.35	1.63
HCI-017.E2	1.94	2.02	1.96	2.04	2.05	1.88	1.64	2.219
MDA-MB-231	4.33	4.19	4.49	4.31	4.4	4.03	3.35	4.34
